Experimental findings from ChEMBL document CHEMBL1133645, “(S)-4-Methyl-2-(methylamino)pentanoic acid [4, 4-bis(4-fluorophenyl)butyl]amide hydrochloride, a novel calcium channel antagonist, is efficacious in several animal models of pain” (J Med Chem, 2000) are described below.

One assay deals with Mus musculus. Description: Intravenous administration of dose required to prevent clonic seizures and tonic extension seizure of forelimbs and hindlimbs. It is filed as functional. To be noted: Hindlimb.
Assay [1] can be described thus: Electrophysiology tested by the voltage clamp assay using superior cervical ganglion sodium neuron (SCGNa). The format is functional, tissue-based. To be noted: Rattus norvegicus.
Assay [2] can be described thus: Electrophysiology tested by the voltage clamp assay using superior cervical ganglion potassium neuron (SCGK). The format is functional, tissue-based. The note with it: Rattus norvegicus.
Assay [3] in a line: Intravenous administration of dose resulting in 50% reduction in the number of writhes in male CF-1 mice. The format is functional. To be noted: Mus musculus.
In assay [4] the target is Voltage-gated L-type calcium channel (Rattus norvegicus, UniProt P22002+Q02485+P27732). Description: L-type calcium channel blockade in A10 smooth muscle cells by Oregon Green 488 Bapta-1 dye. The format is functional, cell-based.
Assay [5] can be described thus: Electrophysiology tested by the voltage clamp assay using superior cervical ganglion calcium neuron (SCGCa). It is filed as functional, tissue-based. The note with it: Rattus norvegicus.
In assay [6] the test system is Rattus norvegicus. The experiment in a line: Oral administration of dose resulting in 50% reduction in the number of flinches per minute.
For assay [7], the species on record is Rattus norvegicus. The experiment in a line: Intrathecal bolus injection of 12.5-100 microg of dose resulting in 50% reduction in the amount of foot withdraw responding to repeated mechanical stimuli.
Assay [8] concerns Rattus norvegicus. Description: Dose given at 15 and 30 mg/kg over 10 min resulting in 50% reduction in the number of flinches per minute when administarted intravenously. The note with it: iv.

As to `CN[C@@H](CC(C)C)C(=O)NCCCC(c1ccc(F)cc1)c1ccc(F)cc1.Cl`, the ED50 turned out to be 4.05 mg/kg in the assay with Mus musculus; 4.46 mg/kg in assay [3]; 87 mg/kg in the assay with Rattus norvegicus [6]; 23 µg in the assay filed under Rattus norvegicus [7]; 16 mg/kg with Rattus norvegicus [8]. Moreover, the IC50 (commonly the concentration that inhibits the measured activity by half) in assay [1] came out at 5.1 µM; in assay [2], 9.9 µM; in assay [4] it was 0.4 µM; in assay [5] it was 1.3 µM.
